# Measured values from US11384055B2 (BIOMARIN PHARMACEUTICAL INC., priority 2017, dated 2022).
# pIC50: −log10 of the molar value.
# Molecular target: T1, Human GO (Homo sapiens, UniProt Q9UJM8)
# T1 construct: purchased Novus Biologicals NBP1-72412
# T1 sequence (Q9UJM8 1-370): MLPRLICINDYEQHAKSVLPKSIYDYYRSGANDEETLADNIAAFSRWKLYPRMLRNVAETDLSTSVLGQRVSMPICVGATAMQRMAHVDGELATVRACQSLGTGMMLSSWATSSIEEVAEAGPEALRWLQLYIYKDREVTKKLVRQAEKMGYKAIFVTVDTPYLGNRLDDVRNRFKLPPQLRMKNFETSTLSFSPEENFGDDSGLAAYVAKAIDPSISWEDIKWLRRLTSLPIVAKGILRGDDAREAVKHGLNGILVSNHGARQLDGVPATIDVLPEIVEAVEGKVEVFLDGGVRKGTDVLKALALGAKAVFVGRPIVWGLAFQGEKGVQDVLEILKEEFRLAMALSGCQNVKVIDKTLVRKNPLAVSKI
# Assay: GO enzymatic assay (coupled fluorescence/HRP assay, glycolate substrate)
# Type: biochemical
# Conditions: Table 4; read-out: Range (range of IC50 values calculated from the enzymatic assays)
# Outline: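 Coupled HRP/fluorescence read-out of glycolate oxidation by human GO in 50 mM potassium phosphate buffer (pH 7). Inhibitors added across a concentration range.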
row,Structure (SMILES),pIC50
1,"O=C(O)c1[nH]nnc1Oc1ccc(-c2ccc(N3CCCCC3)cc2)c(Cl)c1 [Compound 406, 4-((2-chloro-4′-(piperidin-1-yl)-[1,1′-biphenyl]-4-yl)oxy)-1H-1,2,3-triazole-5-carboxylic acid 2,2,2-trifluoroacetate]",> 7.00
2,"O=C(O)c1[nH]nnc1Oc1ccc(-c2ccc(N3CCCCC3)cc2Cl)cc1 [Compound 407, 4-((2′-chloro-4′-(piperidin-1-yl)-[1,1′-biphenyl]-4-yl)oxy)-1H-1,2,3-triazole-5-carboxylic acid]",> 7.00
3,"O=C(O)c1[nH]nnc1Oc1ccc(Cl)c(OCc2ccc(OC(F)(F)F)cc2)c1 [Compound 408, 4-(4-chloro-3-((4-(trifluoromethoxy)benzyl)oxy)phenoxy)-1H-1,2,3-triazole-5-carboxylic acid]",> 7.00
4,"NS(=O)(=O)c1ccc(-c2ccc(Oc3nn[nH]c3C(=O)O)cc2)cc1 [Compound 413, 4-((4′-sulfamoyl-[1,1′-biphenyl]-4-yl)oxy)-1H-1,2,3-triazole-5-carboxylic acid]",> 7.00
5,"O=C(O)c1[nH]nnc1Oc1ccc(Cl)c(OCc2ccc(C(F)(F)F)cc2)c1 [Compound 415, 4-(4-chloro-3-((4-(trifluoromethyl)benzyl)oxy)phenoxy)-1H-1,2,3-triazole-5-carboxylic acid]",> 7.00
6,"N#Cc1ccc(Oc2nn[nH]c2C(=O)O)cc1OCc1ccc(OC(F)(F)F)cc1 [Compound 421, 4-(4-cyano-3-((4-(trifluoromethoxy)benzyl)oxy)phenoxy)-1H-1,2,3-triazole-5-carboxylic acid]",> 7.00
7,"O=C(O)c1[nH]nnc1O[C@H]1C[C@@H]2CN(c3ccc(Cl)c(Cl)c3)C[C@@H]2C1 [Compound 427, 4-(((3aR,5s,6aS)-2-(3,4-dichlorophenyl)octahydrocyclopenta[c]pyrrol-5-yl)oxy)-1H-1,2,3-triazole-5-carboxylic acid]",> 7.00
8,"O=C(O)c1[nH]nnc1S[C@H]1C[C@@H]2CN(c3ccc(Cl)c(Cl)c3)C[C@@H]2C1 [Compound 428, 4-(((3aR,5s,6aS)-2-(3,4-dichlorophenyl)octahydrocyclopenta[c]pyrrol-5-yl)thio)-1H-1,2,3-triazole-5-carboxylic acid]",> 7.00
9,"O=C(O)c1[nH]nnc1OC1CCN(c2cc(OC(F)(F)F)ccc2Cl)CC1 [Compound 429, 4-((1-(2-chloro-5-(trifluoromethoxy)phenyl)piperidin-4-yl)oxy)-1H-1,2,3-triazole-5-carboxylic acid]",> 7.00
10,"O=C(O)c1[nH]nnc1CSC1CCC2(CCCC2)CC1 [Compound 435, 4-((spiro[4.5]decan-8-ylthio)methyl)-1H-1,2,3-triazole-5-carboxylic acid]",> 7.00
11,"N#CC1(c2ccc(OC(F)(F)F)cc2)CCC(Oc2nn[nH]c2C(=O)O)CC1 (stereo not shown) [Compound 437, 4-((4-cyano-4-(4-(trifluoromethoxy)phenyl)cyclohexyl)oxy)-1H-1,2,3-triazole-5-carboxylic acid]",> 7.00
12,"COC1(c2ccc(OC(F)(F)F)cc2)CC(Oc2nn[nH]c2C(=O)O)C1 (stereo not shown) [Compound 440, 4-(3-methoxy-3-(4-(trifluoromethoxy)phenyl)cyclobutoxy)-1H-1,2,3-triazole-5-carboxylic acid]",6.00 to 7.00
13,"O=C(O)c1[nH]nnc1S[C@H]1CC[C@@H](c2ccc(N3CCCCC3)c(Cl)c2)CC1 [Compound 442-1, 4-(((cis)-4-(3-chloro-4-(piperidin-1-yl)phenyl)cyclohexyl)thio)-1H-1,2,3-triazole-5-carboxylic acid 2,2,2-trifluoroacetate]",> 7.00
14,"O=C(O)c1[nH]nnc1S[C@H]1CC[C@H](c2ccc(N3CCCCC3)c(Cl)c2)CC1 [Compound 442-2, 4-(((trans)-4-(3-chloro-4-(piperidin-1-yl)phenyl)cyclohexyl)thio)-1H-1,2,3-triazole-5-carboxylic acid 2,2,2-trifluoroacetate]",> 7.00
15,"C[C@]1(c2ccc(OC(F)(F)F)cc2)CC[C@H](Oc2nn[nH]c2C(=O)O)CC1 [Compound 443, 4-(((1r,4r)-4-methyl-4-(4-(trifluoromethoxy)phenyl)cyclohexyl)oxy)-1H-1,2,3-triazole-5-carboxylic acid]",> 7.00
16,"C[C@]1(c2ccc(OC(F)(F)F)cc2)CC[C@@H](Oc2nn[nH]c2C(=O)O)CC1 [Compound 444, 4-(((1s,4s)-4-methyl-4-(4-(trifluoromethoxy)phenyl)cyclohexyl)oxy)-1H-1,2,3-triazole-5-carboxylic acid]",> 7.00
17,"O=C(O)c1[nH]nnc1O[C@H]1CC[C@H](c2ccc(OC3CC3)cc2)CC1 [Example 446, 4-(((trans)-4-(4-cyclopropoxyphenyl)cyclohexyl)oxy)-1H-1,2,3-triazole-5-carboxylic acid]",> 7.00

row,Structure (SMILES),pIC50
1,"O=C(O)c1[nH]nnc1O[C@H]1CC[C@H](c2ccc(F)cc2)CC1 [Example 447, 4-(((trans)-4-(4-fluorophenyl)cyclohexyl)oxy)-1H-1,2,3-triazole-5-carboxylic acid]",> 7.00
2,"O=C(O)c1[nH]nnc1Oc1ccc(Cl)c(OC2CCC2)c1 [Example 448, 4-(4-chloro-3-cyclobutoxyphenoxy)-1H-1,2,3-triazole-5-carboxylic acid]",> 7.00
3,"O=C(O)c1[nH]nnc1OC1CC(c2ccc(OC(F)(F)F)cc2)C1 (stereo not shown) [Example 449, 4-(3-(4-(trifluoromethoxy)phenyl)cyclobutoxy)-1H-1,2,3-triazole-5-carboxylic acid]",> 7.00
4,"O=C(O)c1[nH]nnc1Oc1ccc(-c2ccc(-n3cccn3)cc2)cc1 [Example 450, 4-((4′-(1H-pyrazol-1-yl)-[1,1′-biphenyl]-4-yl)oxy)-1H-1,2,3-triazole-5-carboxylic acid 2,2,2-trifluoroacetate]",> 7.00
5,"O=C(O)c1[nH]nnc1N[C@H]1CC[C@H](c2ccc(OC(F)(F)F)cc2)CC1 [Example 451, 4-(((trans)-4-(4-(trifluoromethoxy)phenyl)cyclohexyl)amino)-1H-1,2,3-triazole-5-carboxylic acid]",> 7.00
6,"O=C(O)c1[nH]nnc1N[C@H]1CC[C@@H](c2ccc(OC(F)(F)F)cc2)CC1 [Example 452, 4-(((cis)-4-(4-(trifluoromethoxy)phenyl)cyclohexyl)amino)-1H-1,2,3-triazole-5-carboxylic acid]",> 7.00
7,"O=C(O)c1[nH]nnc1OC1CCC(O)(c2ccc(OC(F)(F)F)cc2)CC1 (stereo not shown) [Example 453, 4-((4-hydroxy-4-(4-(trifluoromethoxy)phenyl)cyclohexyl)oxy)-1H-1,2,3-triazole-5-carboxylic acid]",6.00 to 7.00
8,"O=C(O)c1[nH]nnc1OC1CC=C(c2ccc(OC(F)(F)F)cc2)CC1 (stereo not shown) [Example 454, 4-((4′-(trifluoromethoxy)-2,3,4,5-tetrahydro-[1,1′-biphenyl]-4-yl)oxy)-1H-1,2,3-triazole-5-carboxylic acid]",> 7.00
9,"O=C(O)c1[nH]nnc1OC1C[C@@H]2CC(c3ccc(OC(F)(F)F)cc3)C[C@@H]2C1 (stereo partly drawn) [Example 455, 4-(((cis-3a,6a)-5-(4-(trifluoromethoxy)phenyl)octahydropentalen-2-yl)oxy)-1H-1,2,3-triazole-5-carboxylic acid]",> 7.00
10,"O=C(O)c1[nH]nnc1CO[C@H]1CC[C@H](c2ccc(OC(F)(F)F)cc2)CC1 [Example 456, 4-((((trans)-4-(4-(trifluoromethoxy)phenyl)cyclohexyl)oxy)methyl)-1H-1,2,3-triazole-5-carboxylic acid]",6.00 to 7.00
11,"NS(=O)(=O)c1ccc([C@H]2CC[C@H](Oc3nn[nH]c3C(=O)O)CC2)cc1 [Example 457, 4-(((trans)-4-(4-sulfamoylphenyl)cyclohexyl)oxy)-1H-1,2,3-triazole-5-carboxylic acid]",> 7.00
12,"O=C(O)c1[nH]nnc1S[C@H]1CC[C@H](c2ccc(-n3cccn3)cc2)CC1 [Example 459, 4-(((trans)-4-(4-(1H-pyrazol-1-yl)phenyl)cyclohexyl)thio)-1H-1,2,3-triazole-5-carboxylic acid 2,2,2-trifluoroacetate]",> 7.00
13,"O=C(O)c1[nH]nnc1O[C@H]1CC[C@H](c2ccc(OCC3CCCCC3)cc2)CC1 [Example 460, 4-(((trans)-4-(4-(cyclohexylmethoxy)phenyl)cyclohexyl)oxy)-1H-1,2,3-triazole-5-carboxylic acid]",> 7.00
14,"O=C(O)c1[nH]nnc1SC1C[C@@H]2CC(c3ccc(OC(F)(F)F)cc3)C[C@@H]2C1 (stereo partly drawn) [Example 461, 4-(((cis-3a,6a)-5-(4-(trifluoromethoxy)phenyl)octahydropentalen-2-yl)thio)-1H-1,2,3-triazole-5-carboxylic acid]",> 7.00
15,"O=C(O)c1[nH]nnc1O[C@H]1CC[C@H](c2ccc(OCCC3CCCCC3)cc2)CC1 [Example 462, 4-(((trans)-4-(4-(2-cyclohexylethoxy)phenyl)cyclohexyl)oxy)-1H-1,2,3-triazole-5-carboxylic acid]",> 7.00
16,"O=C(O)c1[nH]nnc1O[C@H]1CC[C@H](c2ccc(OCCCO)cc2)CC1 [Example 463, 4-(((trans)-4-(4-(3-hydroxypropoxy)phenyl)cyclohexyl)oxy)-1H-1,2,3-triazole-5-carboxylic acid]",> 7.00
17,"CC(C)c1cc(-c2ccc([C@H]3CC[C@H](Oc4nn[nH]c4C(=O)O)CC3)cc2)[nH]n1 [Example 464, 4-(((trans)-4-(4-(3-isopropyl-1H-pyrazol-5-yl)phenyl)cyclohexyl)oxy)-1H-1,2,3-triazole-5-carboxylic acid 2,2,2-trifluoroacetate]",> 7.00
